The test system of one test is isolated monocytes. The test can be described thus: Factors released by monocytes after MUC1-ST treatment (protein array, ELISA). It counts as cell-based, human. To be noted: 100 μg/10^6 cells MUC1-ST, 48 hours. As to the method:
ELISAs for IL-6, IL-12p70, TGF-β1, PAI-1, M-CSF, EGF, SHP2, phospho-SHP2 (Biotechne) were all carried out as per manufacturer's instructions.
Recombinant MUC1-ST was bound to monocytes and the factors released determined using a protein array as follows. Briefly, isolated monocytes were treated with 100 μg/10^6 cells MUC1-ST for 4 hours at 4° C., washed and incubated at 37° C. for 48 hours in AIM-V serum-free media. Supernatant was taken and cytokine production was assessed using a 102 protein array (Bio-Techne).
For orientation: ELISA stands for enzyme-linked immunosorbent assay.

In the next test the test system is allogeneic CD8+ T cells. The test can be described thus: Co-culture of MUC1-ST treated macrophages with allogeneic CD8+ T cells. It counts as cell-based, human. To be noted: macrophages educated with MUC1-ST. As to the method:
Thereafter, the effects of MUC1-ST educated macrophages on T cell function were analyzed. Macrophages treated with MUC1-ST were co-cultured with eFluor® 670 labelled allogeneic CD8+ T cells in the presence of absence of anti-Siglec-9 antibody or isotype control. Indeed, macrophages that had been educated with MUC1-ST were decreased in their ability to stimulate the proliferation of allogeneic CD8 T cells (FIG. 11E). […] (FIG. 11F). This profile of expression and functional activity is indicative of tumor-associated macrophages (TAMs), which play a role in promoting tumor progression (Noy et al. (2014) IMMUNITY 41: 49-61; Sousa et al. (2015) BREAST CANCER RES. 17: 101; Qian et al. (2010) CELL 141: 39-45).

A further test concerns the target Siglec-9 (Homo sapiens, UniProt Q9Y336). The test can be described thus: MUC1-ST binding to monocytic cell lines THP-1 and U937, with or without blocking antibody. The format is cell-based. More on the design: endogenous in cells; host or cells: THP-1 and U937 cells. The conditions noted are these: time and concentration dependent. As to the method:
Unless indicated otherwise, all binding experiments using purified immune cell subsets and biotinylated purified recombinant tumor-associated MUC1 glycoforms were performed as follows. 1×10^5 isolated/differentiated cells at 5×10^5 cells per mL were incubated for 4 hours on ice with 10 μg of the appropriate biotinylated recombinant MUC1 glycoform in 0.5% BSA in PBS. Cells were washed in 0.5% BSA in PBS before 1:200 SAPE (Life Technologies) was added for 30 minutes on ice. Cells were washed and analysed by flow cytometry or fluorescent microscopy (after cytospin), using streptavidin-PE (SAPE) as a label.

Test [1] has as its system recombinant Siglecs 3, 7, 9 and 10. The test can be described thus: Binding of biotinylated MUC1 glycoforms to plate-bound recombinant Siglec fusion proteins. Details: species or system human. The conditions noted are these: 2 μg/ml biotinylated MUC1 glycoform, 4 hours; panel Siglec 3, 5, 7, 8, 9 and 10. As to the method: Binding was enhanced when cells were pre-treated with 0.04 U/ml neuraminidase for 30 minutes at 37° C. in PBS (FIG. 3C), which removes competing cis-binding sialic acid sites from the surface of the cells. As this pattern is characteristic of binding to Siglecs (Macauley et al. (2014) NAT. REV. IMMUNOL. 14: 653-666), MUC1-ST binding to Siglecs was tested as follows: mouse anti human IgG was bound to plastic O/N and the plate was blocked using 1% BSA in PBS. Recombinant human Siglec (3, 5, 7, 8, 9 and 10) fusion proteins were added at 2 μg/mL for 2 hours. After incubation with 2 μg/ml biotinylated MUC1 glycoforms for 4 hours, O.D. was measured after the addition of streptavidin-HRP and substrate. […] Although Siglecs 3, 7 and 9 are expressed by monocytes and macrophages (FIG. 3D), a blocking antibody to Siglec-9 inhibited 80-95% of the MUC1-ST binding to these cells (FIGS. 2G-2I, 3E, and 5) indicating this is the dominant binding Siglec. […] Importantly, Siglec-9 bound to the breast cancer cell line T47D that expresses MUC1 carrying sialylated Core-1 glycans (FIG. 2J). Finally, isolated monocytes were bound to 10 μg/mL biotinylated MUC1-ST or 10 μg/mL biotinylated polyacrylamide carrying the ST glycan (PAA-ST; Glycotech).

The next test deals with macrophages. The test is described as follows: Phenotype of MUC1-ST treated macrophages (CD206, CD163, PD-L1; flow cytometry). It counts as cell-based, human. As to the method: Both the cell phenotype staining and neutralization studies described in the Examples were performed using the following antibodies (all anti-human): Siglec-9 (Biotechne; 191240), Siglec-9 FITC (Biotechne; 191240), Siglec-3 (Biotechne; 6C5/2), Siglec-7 (Biotechne; AF1138), Siglec-3 FITC (BD; P67.6), Siglec-7 PE (Biolegend; 6-434), Siglec-10 PE (Biolegend; 5G6), Siglec-1 (abcam; 7D2), HLA-DR FITC (Beckman Coulter; IM0463U), CD16 FITC (Biolegend; B73.1), CD14 FITC (BD 555397), CD69 PE (Beckman Coulter; IM1943), CD25 FITC (ABX228FITC), CD86 PE (Beckman Coulter; IM2729U), CD40 FITC (BD 555588), CD83 PE (Beckman Coulter; IM2218), CD163 PE (Biolegend; GHI/61), CXCR1 FITC (BD Pharmongen; 551126), CD45 PC5 (Beckman Coulter; IM2653U), CD206 PE (ebioscience; 19.2), PD-L1 PE (Biolegend; 29E.2A3), CD36 (Santa Cruz; H-300), TGFbetaRII (Bio-Techne; AF-241), IL-6Rα (Tocilizumab; Roche. A generous gift from Dr. Valerie Corrigall). Cells were suspended in PBS+0.5% BSA (2×10^5 cells/100 μL/sample) and incubated with Abs according to the manufacturer's instructions. At least 1×10^4 events were evaluated using either Epics XL, (Beckman Coulter) or FACSCalibur (BD Biosciences) flow cytometers. Analysis was performed using either WinMDI or Cellquest software.
A general note: A flow cytometer gives signals particle by particle.

The text below walks through data of US20190211099A1, “METHODS AND COMPOSITIONS FOR TREATING CANCER WITH SIGLEC-9 ACTIVITY MODULATORS” (KING'S COLLEGE LONDON, priority 2016, published 2019).

Sequence of Siglec-9 (Q9Y336 18-463): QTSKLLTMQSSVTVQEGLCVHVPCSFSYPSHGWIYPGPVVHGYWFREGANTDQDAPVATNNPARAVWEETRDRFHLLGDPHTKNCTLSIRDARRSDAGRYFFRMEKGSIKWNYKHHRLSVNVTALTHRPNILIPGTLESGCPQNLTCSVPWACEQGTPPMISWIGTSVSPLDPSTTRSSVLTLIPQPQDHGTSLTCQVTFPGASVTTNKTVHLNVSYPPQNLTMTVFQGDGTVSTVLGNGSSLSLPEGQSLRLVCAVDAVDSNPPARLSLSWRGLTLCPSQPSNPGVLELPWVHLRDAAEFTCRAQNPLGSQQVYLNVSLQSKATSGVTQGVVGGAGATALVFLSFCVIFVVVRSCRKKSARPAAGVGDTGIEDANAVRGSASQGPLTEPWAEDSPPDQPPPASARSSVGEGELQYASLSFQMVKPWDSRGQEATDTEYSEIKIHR

As for “NeuAcα2,3Galβ1-3GalNAc linked via a Ser/Thr of MUC1 [MUC1-ST]”, the “secretion of factors associated with inflammation and tumor progression (IL-6, M-CSF, PAI-1 validated by ELISA)” value with isolated monocytes was “induced”. For the same substance, in the test on allogeneic CD8+ T cells, the “CD8 IFNγ secretion” value is “decreased” and the “ability of macrophages to stimulate proliferation of allogeneic CD8 T cells” value is “decreased”. In the test with Siglec-9, the binding to cells entry is given as “found to bind”. The “binding to recombinant Siglec fusion proteins” value in test [1] is listed as “bound”. In the test on macrophages, the “expression of immune checkpoint ligand PD-L1” value is recorded as “increased expression”; the “levels of mannose receptor (CD206) and scavenger receptor CD163” value is given as “increased levels”.
